Results reported in publication PMC7824383, “Organic Solution Advanced Spray-Dried Microparticulate/Nanoparticulate Dry Powders of Lactomorphin for Respiratory Delivery: Physicochemical Characterization, In Vitro Aerosol Dispersion, and Cellular Studies” (Pharmaceutics, 2020).
Square brackets hold non-standard residues; d marks the D form. Peptide text beside a SMILES is read from it. * marks the point of attachment. X1 = OC[C@H]1O[C@@H](O[C@H]2[C@H](O)[C@@H](O)[C@H](*)O[C@@H]2CO)[C@H](O)[C@@H](O)[C@H]1O

Assay: Thermal degradation study of solid-state Lactomorphin
Type: physicochemical
Details: n = 3
Text: Forced degradation is a degradation of new drug substances at conditions more severe than accelerated conditions. The FDA and ICH guidance estate the requirement of stability testing data to understand how the quality of drug changes with time under various environmental conditions. Thermal, hydrolysis, oxidation, and photodegradation are commonly used stress study conditions. Knowledge of a molecule’s stability helps select proper formulation and provide adequate storage conditions and shelf life, which is essential for regulatory documentation. As the temperature is one of the most vital factors that affect the stability of a drug material more than the other conditions, in this study, we performed thermal degradation by exposing samples of solid-state Lactomorphin to dry and wet heat.
Samples preparation were done by weighing 25 mg of Lactomorphin, transfer it into a 25 mL volumetric flask, and add 25 mL of water and shake so all the quantity dissolved. Using a calibrated micropipette, transfer 0.20 mL of this 1 mg/mL Lactomorphin stock solution into around 90 (2 mL) glass vials. Freeze-dry all vials so that all vials have accurately 0.2 mg of Lactomorphin after lyophilization. A saturated salt solution of NaCl to achieve about 75% Relative Humidity (RH) and saturated salt solution of P2O5 to reach about 0.00% RH were prepared. Thirty vials contain 0.2 mg of Lactomorphin were kept inside a separate desiccator (tightly closed 20 mL glass vial with saturated NaCl). Another set of 30 vials were kept inside the desiccator (tightly closed 20 mL glass vial with saturated P2O5). All were put in oven fixed at 62 °C temperature. To achieve equal distribution of heat inside the oven for all samples used for the degradation study, they were placed in a metallic block made, especially for this study. The rest of the vials were kept in a desiccator at −80 °C to be used as comparison(control) samples.
According to the regulatory guidelines, there is no specific concentration used for the degradation study; however, 1 mg/mL concentration is recommended. This study used three concentrations by dissolving the stability samples in 0.2 mL, 0.4 mL, and 2 mL water to achieve 1000 μg/mL, 500 μg/mL, and 100 μg/mL concentration, respectively. Analysis of the stability samples was performed every time against a freshly prepared calibration curve and comparison samples (control samples that freshly prepared and injected directly without being exposed to the force degradation conditions) at the following periods: 0.00, 0.08, 0.17, 1, 2, 4, 10, 20, 45, 94 and 133 days. All experiments at each time point and different stability conditions were done in triplicate (n = 3). The HPLC system consisted of a VARIAN ProStar model 330 PDA Detector coupled with a VARIAN ProStar Solvent delivery module and VARIAN ProStar model 430 auto-sampler. The analysis was performed by a reverse phase HPLC assay, using Inspire™ 5 μm C18, 250 × 4.6 mm HPLC Column. Ultraviolet detection was done at 280, 254 and 220 nm, but the quantitation was done at 280 nm only. Mobile phase conditions were gradient according to the above program in Section 2.2.13 and at a flow rate of 1.00 mL/min.

## CC(C)C[C@H](NC(=O)[C@H](Cc1ccccc1)NC(=O)CNC(=O)[C@H](NC(=O)[C@@H](N)Cc1ccc(O)cc1)[C@H](C)O)C(=O)N[C@@H](CO[C@@H]1O[C@H](CO)[C@@H](O[C@@H]2O[C@H](CO)[C@H](O)[C@H](O)[C@H]2O)[C@H](O)[C@H]1O)C(N)=O [Lactomorphin, H2N-Tyr-D-Thr- Gly-Phe-Leu-Ser-(O-β-Lactoside)-CONH2] (H-Y[dT]GFLS(X1)-NH2)
Solid (lyophilised 0.2 mg), 62 °C / 75% RH, 2 hrs, reconstituted in water to 100, 500, 1000 μg/mL, HPLC-UV 280 nm vs fresh controls
  Lactomorphin stability% (remaining%): 59%
solid, 62 °C / 75% RH, 4 hrs, reconstituted 100, 500, 1000 μg/mL, HPLC-UV 280 nm
  Lactomorphin stability% (remaining%): 29%
solid, 62 °C / 75% RH, 24 h, reconstituted 100, 500, 1000 μg/mL, HPLC-UV 280 nm
  Lactomorphin stability% (remaining%): 6%
solid, 62 °C / RH 0.00%, 10 days, HPLC-UV 280 nm
  Lactomorphin stability% (remaining%): around 60%
solid, 62 °C / RH 0.00%, day 94, HPLC-UV 280 nm
  Lactomorphin stability% (remaining%): ~ 10%
solid, 62 °C / RH 0.00%, day 133, HPLC-UV 280 nm
  Lactomorphin stability% (remaining%): ~ 10%
solid, 62 °C / RH 0.00%, up to day 45, HPLC-UV 280 nm
  Lactomorphin stability% (remaining%): around 60%
